Data set [1] addresses T1, baculovirus-expressed VEGF receptor (human flk-1, KDR, VEGFR2) kinase domain (Homo sapiens, UniProt P35968).
T1 construct: VEGF receptor (human flk-1, KDR, VEGFR2) kinase domain; made in house
The experiment in a line: VEGF receptor kinase activity inhibition, ELISA assay. It counts as biochemical. Conditions: 40 μM ATP; value printed without parentheses; read-out: VEGFR kinase IC50. As to the method:
Isomeric fused pyrrolocarbazole and isoindolone compounds were examined for their inhibitory effects on the kinase activity of baculovirus-expressed VEGF receptor (human flk-1, KDR, VEGFR2) kinase domain using the procedure described for the trkA kinase ELISA assay described above. The kinase reaction mixture, consisting of 50 mM Hepes, pH 7.4, 40 μM ATP, 10 mM MnCl2, 0.1% BSA, 2% DMSO, and various concentrations of inhibitor, was transferred to PLC-γ/GST-coated plates. VEGFR kinase was added and the reaction was allowed to proceed for 15 min at 37° C. Detection of phosphorylated product was accomplished by addition of anti-phosphotyrosine antibody (UBI). A secondary enzyme-conjugated antibody was delivered to capture the antibody-phosphorylated PLC-γ/GST complex. The activity of the bound enzyme was measured via an amplified detection system (Gibco-BRL). Inhibition data were analyzed using the sigmoidal dose-response (variable slope) equation in GraphPad Prism Results are summarized in Table 6.

In data set [2] the target is T2, baculovirus-expressed human trkA cytoplasmic domain (Homo sapiens, UniProt P04629).
T2 construct: baculovirus-expressed human trkA cytoplasmic domain; made in house
T2 sequence (P04629 440-796 limits assumed): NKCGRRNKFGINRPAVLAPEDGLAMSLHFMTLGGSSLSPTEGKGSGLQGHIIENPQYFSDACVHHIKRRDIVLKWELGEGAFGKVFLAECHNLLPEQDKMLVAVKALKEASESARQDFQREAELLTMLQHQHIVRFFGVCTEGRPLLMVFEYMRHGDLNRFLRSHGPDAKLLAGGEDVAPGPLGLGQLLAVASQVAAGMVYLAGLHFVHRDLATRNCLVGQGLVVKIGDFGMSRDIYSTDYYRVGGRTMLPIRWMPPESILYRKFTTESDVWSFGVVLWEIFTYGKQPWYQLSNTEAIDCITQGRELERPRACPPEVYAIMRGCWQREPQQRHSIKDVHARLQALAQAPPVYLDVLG
The experiment in a line: trkA tyrosine kinase activity inhibition, ELISA-based assay. It counts as biochemical. Conditions: read-out: trkA (% inhibition @ 300 nM); 300 nM compound; 40 μM ATP; value printed in parentheses. As to the method: Selected isomeric fused pyrrolocarbazole and isoindolone compounds were tested for their ability to inhibit the kinase activity of baculovirus-expressed human trkA cytoplasmic domain using an ELISA-based assay as previously described (Angeles et al, Anal. Biochem. 236: 49-55, 1996). Briefly, the 96-well microtiter plate was coated with substrate solution (recombinant human phospholipase C-γl/glutathione S-transferase fusion protein (Rotin et al., EMBO J., II: 559-567, 1992). Inhibition studies were performed in 100 μl assay mixtures containing 50 mM Hepes, pH 7.4, 40 μM ATP, 10 mM MnCl2, 0.1% BSA; 2% DMSO, and various concentrations of inhibitor. The reaction was initiated by addition of trkA kinase and allowed to proceed for 15 minutes at 37° C. An antibody to phosphotyrosine (UBI) was then added, followed by a secondary enzyme-conjugated antibody, alkaline phosphatase-labelled goat anti-mouse IgG (Bio-Rad). The activity of the bound enzyme was measured via an amplified detection system (Gibco-BRL). Inhibition data were analyzed using the sigmoidal dose-response (variable slope) equation in GraphPad Prism.

Data set [3] has as its target T3, baculovirus-expressed PDGFβ receptor kinase domain (Homo sapiens, UniProt P09619).
T3 construct: baculovirus-expressed PDGFβ receptor kinase domain; made in house
The data set is described as follows: PDGF receptor kinase activity inhibition, ELISA assay. Type of data set: biochemical. Conditions: read-out: PDGFRβ (% inhibition @ 1 μM); 1 μM compound; 20 μM ATP; value printed in parentheses. As to the method: Isomeric fused pyrrolocarbazole and isoindolone compounds were examined for their inhibitory effects on the kinase activity of baculovirus-expressed PDGFβ receptor kinase domain using the trkA kinase ELISA described above. Assays were performed in substrate (PLC-γ/GST)-coated 96-well microtiter plates. Each 100-μl reaction mixture contained 50 mM HEPES, pH 7.4, 20 μM ATP, 10 mM MnCl2, 0.1% BSA, 2% DMSO, and various concentrations of inhibitor. The reaction was initiated by addition of prephosphorylated recombinant human enzyme (10 ng/ml PDGFβ) and allowed to proceed for 15 minutes at 37° C. The prephosphorylated enzyme was prepared prior to use by incubation of the kinase in buffer containing 20 μM ATP and 10 mM MnCl2 for 1 hour at 4 C. Detection of phosphorylated product was done by adding horseradish peroxidase (HRP)-conjugated anti-phosphotyrosine antibody (UBI). The HRP substrate solution containing 3,3′-5,5′-tetramethylbenzidine and hydrogen peroxide was later added and the plates were incubated for 10 minutes at room temperature. The reaction was quenched with acid and the resulting absorbance was read at 450 nm using a Microplate Bio-kinetics Reader (Bio-Tek Instrument EL 312e). Inhibition data were analyzed using the sigmoidal dose-response (variable slope) equation in GraphPad Prism.
On the technique in general: ELISA stands for enzyme-linked immunosorbent assay.

Broadly, the IC50 is the concentration needed to halve the response being measured. Broadly, the melting point is the temperature of the solid-liquid transition. By inhibition is commonly meant the percentage by which the read-out fell short of the control.

T3 sequence (P09619 600-962 limits assumed): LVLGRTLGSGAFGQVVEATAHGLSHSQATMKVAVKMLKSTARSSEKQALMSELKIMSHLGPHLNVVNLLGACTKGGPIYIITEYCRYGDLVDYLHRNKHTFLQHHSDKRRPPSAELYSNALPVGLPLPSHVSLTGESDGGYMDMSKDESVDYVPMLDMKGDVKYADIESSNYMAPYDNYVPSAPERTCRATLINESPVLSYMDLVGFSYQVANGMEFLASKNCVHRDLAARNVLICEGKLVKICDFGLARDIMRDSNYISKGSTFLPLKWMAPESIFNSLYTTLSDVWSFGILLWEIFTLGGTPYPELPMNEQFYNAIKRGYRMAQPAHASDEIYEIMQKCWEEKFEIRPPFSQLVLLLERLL
T1 sequence (P35968 834-1162 limits assumed): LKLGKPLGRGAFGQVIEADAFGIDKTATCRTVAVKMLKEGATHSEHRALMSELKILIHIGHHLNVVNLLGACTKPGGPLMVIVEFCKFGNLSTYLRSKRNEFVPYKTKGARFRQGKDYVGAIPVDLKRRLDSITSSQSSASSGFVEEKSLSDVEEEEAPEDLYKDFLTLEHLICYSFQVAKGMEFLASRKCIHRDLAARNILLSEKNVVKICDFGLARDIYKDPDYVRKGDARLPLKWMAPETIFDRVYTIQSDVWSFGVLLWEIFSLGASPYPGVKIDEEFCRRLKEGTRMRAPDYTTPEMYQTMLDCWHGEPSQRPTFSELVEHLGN

Regarding `O=C1NC(=O)c2c1c1c(c3[nH]c4ccc(Br)cc4c23)-c2ccccc2CC1` [IV-9], the melting point was over 300 °C. Moreover, the IC50 in data set [1] amounted to 2860 nM. Besides, the inhibition at 0.3 µM in data set [2] was determined as 6%. Besides, the inhibition at 1 µM in data set [3] was determined as 20%.

These data come from patent US7291732B2, “Isomeric fused pyrrolocarbazoles and isoindolones” (Cephalon, Inc., priority 1999, dated 2007).
